In patent publication US6369246B2, “Synthesis and pharmaceuticals of novel 9-substituted-1, 5-dichloroanthracene analogs” (Dr. Keith Chan, GloboAsia, LLC, priority 1999, dated 2002):
pIC50: −log10 of the molar value.

The molecules below were run on GBM cell line (human cervical carcinoma cells of ME 180 (GBM8401)) (assay: Growth inhibition assay, GBM cell line). Details: 48 hours, cell counting, read-out: IC50 GBM (concentration required to inhibit cell growth by 50% relative to controls).
Assay type: cell-based
Procedure: (§1) Growth inhibition was measured in three human carcinoma cell lines (GBK KB and CHO) using a previously described […] assay. Hwang, J.-M. et al., Chin. Med. J (Taipei), 51, 166-175 (1993). Human oral epidermoid carcinoma cells (KB cell line), human cervical carcinoma cells of ME 180 (GBM8401) and Chinese hamster ovary (CHO) cells grown in plateau phase were used in all experiments. Each cell line was further divided into control and experimental groups, respectively.
(§2) Stock solutions of the test compounds were prepared in DMSO and diluted with DMEM to give a final concentration of DMSO of 0.2%. Controls were performed with DMSO or with medium alone. The medium was removed and each well was rinsed with 100 μL PBS 48 hours after addition of the test compound to the culture. The cells were then incubated with sterile 0.5% trypsin, 0.2% EDTA in PBS for 20 minutes at 37° C. The detached cells from each well were suspended in DMEM and dispersed into single cells by gentle pipeting through an Eppendorf pipette and cell growth was determined directly by counting the cells in a Neubauer counting chamber using phase contrast microscopy. Inhibition was calculated by comparison of the mean values of the test compound (N=3) with the control (N=6−8) activity: (1-test compound/control) ×100. Inhibition was statistically significant compared to that of control (Student's t Test; P=0.05). IC50 values (concentration required to inhibit cell growth by 50%) were determined for each agent which was derived by interpolation of a log inhibitor concentration versus response plot using four or more different concentrations of the compound spanning the 50% inhibition point.

| pIC50 | Molecule |
| --- | --- |
| 4.95 | 1,5-Dichloro-9-(p-toluoxy)-anthracene [Compound 3o] |
| 4.72 | O=C(CBr)Oc1c2cccc(Cl)c2cc2cccc(Cl)c12 [Compound 3b] |
| 3.98 | O=C(CCl)Oc1c2cccc(Cl)c2cc2cccc(Cl)c12 [Compound 3c] |
| 4.76 | CCC(=O)Oc1c2cccc(Cl)c2cc2cccc(Cl)c12 [Compound 3d] |
| 3.71 | CC(C)C(=O)Oc1c2cccc(Cl)c2cc2cccc(Cl)c12 [Compound 3e] |
| 3.90 | CC(Cl)C(=O)Oc1c2cccc(Cl)c2cc2cccc(Cl)c12 (centres unmarked) [Compound 3f] |
| 5.85 | O=C(Oc1c2cccc(Cl)c2cc2cccc(Cl)c12)C(Cl)Cl [Compound 3g] |
| 3.24 | CCCC(=O)Oc1c2cccc(Cl)c2cc2cccc(Cl)c12 [Compound 3h] |
| 3.69 | O=C(CCCBr)Oc1c2cccc(Cl)c2cc2cccc(Cl)c12 [Compound 3i] |
| 5.96 | O=C(CCCCl)Oc1c2cccc(Cl)c2cc2cccc(Cl)c12 [Compound 3j] |
| 5.92 | CCCCCC(=O)Oc1c2cccc(Cl)c2cc2cccc(Cl)c12 [Compound 3k] |
| 3.97 | Cc1ccccc1C(=O)Oc1c2cccc(Cl)c2cc2cccc(Cl)c12 [Compound 3m] |

What follows are molecules tested on Human oral epidermoid carcinoma cells (KB cell line) (assay: Growth inhibition assay, KB cell line). Details: 48 hours, cell counting, read-out: IC50 KB (concentration required to inhibit cell growth by 50% relative to controls).
Assay type: cell-based
Procedure: as §1, §2

| pIC50 | Molecule |
| --- | --- |
| 3.06 | 1,5-Dichloro-9-(p-toluoxy)-anthracene [Compound 3o] |
| 3.87 | O=C(CBr)Oc1c2cccc(Cl)c2cc2cccc(Cl)c12 [Compound 3b] |
| 3.28 | O=C(CCl)Oc1c2cccc(Cl)c2cc2cccc(Cl)c12 [Compound 3c] |
| 3.33 | CCC(=O)Oc1c2cccc(Cl)c2cc2cccc(Cl)c12 [Compound 3d] |
| 3.37 | CC(C)C(=O)Oc1c2cccc(Cl)c2cc2cccc(Cl)c12 [Compound 3e] |
| 3.43 | CC(Cl)C(=O)Oc1c2cccc(Cl)c2cc2cccc(Cl)c12 (centres unmarked) [Compound 3f] |
| 3.28 | O=C(Oc1c2cccc(Cl)c2cc2cccc(Cl)c12)C(Cl)Cl [Compound 3g] |
| 3.26 | CCCC(=O)Oc1c2cccc(Cl)c2cc2cccc(Cl)c12 [Compound 3h] |
| 3.34 | O=C(CCCBr)Oc1c2cccc(Cl)c2cc2cccc(Cl)c12 [Compound 3i] |
| 4.96 | O=C(CCCCl)Oc1c2cccc(Cl)c2cc2cccc(Cl)c12 [Compound 3j] |
| 3.50 | CCCCCC(=O)Oc1c2cccc(Cl)c2cc2cccc(Cl)c12 [Compound 3k] |
| 2.94 | Cc1ccccc1C(=O)Oc1c2cccc(Cl)c2cc2cccc(Cl)c12 [Compound 3m] |

These molecules were tested on iron-induced lipid peroxidation in rat brain homogenates (assay: Lipid peroxidation assay (TBA)). Details: 1 μM compound, ferrous ion 200 μM, 37° C. 30 min.
Assay type: biochemical, Wistar rats
Procedure: Rat brain homogenate was prepared from the brains of freshly killed Wistar rats and its peroxidation. In the presence of iron ions was measured by the thiobarbituric acid (TBA). Teng, C. M. et al., Eur. J. Pharmacol., 303, 129-139 (1996). Tetramethoxypropane was used as a standard, and the results were expressed as nanomoles of malondialdehyde equivalents per milligram of protein of rat brain homogenates. In brief, whole brain tissue, excluding the cerebellum, was washed and homogenized in 10 volumes of ice-cold Krebs buffer (10 mM N-2 hydroxyethyl-piperazine-N′-2-ethanesulfonic acid (Hepes), 10 mM glucose, 140 mM NaCl, 3.6 mM KCl, 1.5 mM CaCl2, 1.4 mM KH2PO4, 0.7 mM MgSO4, pH 7.4) using a glass Dounce homogenizer. […] The reaction mixture with test compounds or vehicle was incubated for 10 min, then stimulated by addition of ferrous ion (200 μM freshly prepared), and maintained at 37° C. for 30 min. The reactions were terminated by adding […] of ice-cold trichloroacetic acid solution (4% (w/v) in 0.3 N HCl) and […], of thiobarbituric acid-reactive substance reagent (0.5% (w/v) thiobarbituric acid in 50% (v/v) acetic acid). After boiling for 15 min, the samples were cooled and extracted with n-butanol. The extent of lipid peroxidation was estimated as thiobarbituric acid-reactive substances and was read at 532 nm in a spectrophotometer (Shimadzu UV-160).

| Molecule | % Inhibition (1 μM), relative percentage of inhibition |
| --- | --- |
| 1,5-Dichloro-9-(p-toluoxy)-anthracene [Compound 3o] | 2.9% |
| O=C(CBr)Oc1c2cccc(Cl)c2cc2cccc(Cl)c12 [Compound 3b] | 100% |
| O=C(CCl)Oc1c2cccc(Cl)c2cc2cccc(Cl)c12 [Compound 3c] | 100% |
| CCC(=O)Oc1c2cccc(Cl)c2cc2cccc(Cl)c12 [Compound 3d] | 100% |
| CC(C)C(=O)Oc1c2cccc(Cl)c2cc2cccc(Cl)c12 [Compound 3e] | 1.5% |
| CC(Cl)C(=O)Oc1c2cccc(Cl)c2cc2cccc(Cl)c12 (centres unmarked) [Compound 3f] | 9.8% |
| O=C(Oc1c2cccc(Cl)c2cc2cccc(Cl)c12)C(Cl)Cl [Compound 3g] | 61.7% |
| CCCC(=O)Oc1c2cccc(Cl)c2cc2cccc(Cl)c12 [Compound 3h] | 11.8% |
| O=C(CCCBr)Oc1c2cccc(Cl)c2cc2cccc(Cl)c12 [Compound 3i] | 38.1% |
| O=C(CCCCl)Oc1c2cccc(Cl)c2cc2cccc(Cl)c12 [Compound 3j] | 10.0% |
| CCCCCC(=O)Oc1c2cccc(Cl)c2cc2cccc(Cl)c12 [Compound 3k] | 12.2% |
| Cc1ccccc1C(=O)Oc1c2cccc(Cl)c2cc2cccc(Cl)c12 [Compound 3m] | 0% |

Same assay, conditions: 10 μM compound, ferrous ion 200 μM, 37° C. 30 min

| Molecule | % Inhibition (10 μM), relative percentage of inhibition |
| --- | --- |
| 1,5-Dichloro-9-(p-toluoxy)-anthracene [Compound 3o] | 25.6% |
| O=C(CBr)Oc1c2cccc(Cl)c2cc2cccc(Cl)c12 [Compound 3b] | 100% |
| O=C(CCl)Oc1c2cccc(Cl)c2cc2cccc(Cl)c12 [Compound 3c] | 100% |
| CCC(=O)Oc1c2cccc(Cl)c2cc2cccc(Cl)c12 [Compound 3d] | 100% |
| CC(C)C(=O)Oc1c2cccc(Cl)c2cc2cccc(Cl)c12 [Compound 3e] | 28.6% |
| CC(Cl)C(=O)Oc1c2cccc(Cl)c2cc2cccc(Cl)c12 (centres unmarked) [Compound 3f] | 60.6% |
| O=C(Oc1c2cccc(Cl)c2cc2cccc(Cl)c12)C(Cl)Cl [Compound 3g] | 100% |
| CCCC(=O)Oc1c2cccc(Cl)c2cc2cccc(Cl)c12 [Compound 3h] | 17.7% |
| O=C(CCCBr)Oc1c2cccc(Cl)c2cc2cccc(Cl)c12 [Compound 3i] | 100% |
| O=C(CCCCl)Oc1c2cccc(Cl)c2cc2cccc(Cl)c12 [Compound 3j] | 29.0% |
| CCCCCC(=O)Oc1c2cccc(Cl)c2cc2cccc(Cl)c12 [Compound 3k] | 17.2% |
| Cc1ccccc1C(=O)Oc1c2cccc(Cl)c2cc2cccc(Cl)c12 [Compound 3m] | 23.0% |

These molecules were tested on Chinese hamster ovary (CHO) cells (assay: Growth inhibition assay, CHO cells). Details: 48 hours, cell counting, read-out: IC50 CHO (concentration required to inhibit cell growth by 50% relative to controls).
Assay type: cell-based
Procedure: as §1, §2

| Molecule | pIC50 |
| --- | --- |
| O=C(CBr)Oc1c2cccc(Cl)c2cc2cccc(Cl)c12 [Compound 3b] | 2.99 |
| O=C(CCl)Oc1c2cccc(Cl)c2cc2cccc(Cl)c12 [Compound 3c] | 5.92 |
| CCC(=O)Oc1c2cccc(Cl)c2cc2cccc(Cl)c12 [Compound 3d] | 2.94 |
| CC(C)C(=O)Oc1c2cccc(Cl)c2cc2cccc(Cl)c12 [Compound 3e] | 2.88 |
| CC(Cl)C(=O)Oc1c2cccc(Cl)c2cc2cccc(Cl)c12 (centres unmarked) [Compound 3f] | 3.02 |
| O=C(Oc1c2cccc(Cl)c2cc2cccc(Cl)c12)C(Cl)Cl [Compound 3g] | 2.89 |
| CCCC(=O)Oc1c2cccc(Cl)c2cc2cccc(Cl)c12 [Compound 3h] | 7.00 |
| O=C(CCCBr)Oc1c2cccc(Cl)c2cc2cccc(Cl)c12 [Compound 3i] | 3.96 |
| O=C(CCCCl)Oc1c2cccc(Cl)c2cc2cccc(Cl)c12 [Compound 3j] | 2.93 |
| CCCCCC(=O)Oc1c2cccc(Cl)c2cc2cccc(Cl)c12 [Compound 3k] | 4.26 |
| Cc1ccccc1C(=O)Oc1c2cccc(Cl)c2cc2cccc(Cl)c12 [Compound 3m] | 2.82 |
